In brackets after ≈: the same amount, converted by molar mass. Several values for one entry are separate records, joined by “and”; a condition that tells them apart may be missing. Identical values can stand only once. One block for each compound: values may come before it.
Assays:
Oryctolagus sp. = settings: for LD50: acute, dermal
Rattus norvegicus [1] = settings: for LD50 / LC50: acute
Rattus norvegicus [2] = settings: subchronic, oral, gavage
Mus musculus [3] = settings: uterotrophic, duration: 3 days, Active
Mus musculus [4] = settings: oral, gavage; for LD50: acute; for LOAEL / NOAEL: subchronic, duration: 13 weeks, B6C3F1
Rattus norvegicus [5] = settings: subchronic; oral; drinking water; M/F; impaired renal function and increased liver and kidney weight
[6] = subchronic, duration: 12 weeks, Inhalation, Long-Evans
[7] = developmental, duration: 10 days, oral, Wistar
[8] = developmental, duration: 128 days, oral, gavage, Wistar
[9] = reproduction developmental, duration: 10 days, oral, F, Wistar
[10] = reproduction developmental, duration: 27 days, oral, gavage, F, Wistar
[11] = reproduction developmental, duration: 27 days, oral, gavage, Wistar, generation: F1
[12] = reproduction developmental, duration: 86 days, oral, gavage, Wistar
[13] = reproduction developmental, duration: 128 days, oral, gavage, F, Wistar
[14] = reproduction developmental, duration: 128 days, oral, gavage, Wistar

Structure (SMILES): Cc1cc(C)c(O)c(C)c1 [2,4,6-Trimethylphenol]
- LD50 (Oryctolagus sp.; New Zealand): > 2000 mg/kg
- LD50 (Rattus norvegicus [1]; oral, gavage): > 2000 mg/kg
- NOAEL (Rattus norvegicus [1]; reproduction developmental, duration: 4 weeks, oral, gavage, F, Sprague-Dawley): ≥ 200 mg/kg-day
- NOAEL (Rattus norvegicus [1]; reproduction developmental, duration: 4 weeks, oral, gavage, Sprague-Dawley, generation: F0): ≥ 200 mg/kg-day
- NOAEL (Rattus norvegicus [1]; reproduction developmental, duration: 4 weeks, oral, gavage, Sprague-Dawley, generation: F1): ≥ 200 mg/kg-day
- NOEL (Rattus norvegicus [2]; M, Sprague-Dawley, Clinical Observation: Salivation + Histopathology: Stomach/forestomach- Squamous cell metaplasia Stomach/forestomach- Edema Stomach/…): 10 mg/kg-day

- LEL (Mus musculus [3]; oral): 33.3 mg/kg-day
Structure (SMILES): O=C(Oc1ccccc1)c1ccccc1O [Phenyl salicylate]

Structure (SMILES): CCCCCCCCCCCCCOC(=O)CCCCC(=O)OCCCCCCCCCCCCC [Bis(tridecyl) adipate]
- LD50 (Oryctolagus sp.): > 2000 mg/kg
- LD50 (Oryctolagus sp.; semiocclusive, New Zealand): > 5000 mg/kg
- LC50 (Rattus norvegicus [1]; Inhalation, Sprague-Dawley): > 3.2 µg/mL
- LD50 (Rattus norvegicus [1]; oral, Sherman Wistar): > 16000 mg/kg
- LD50 (Rattus norvegicus [1]; oral, gavage, Wistar): > 15000 mg/kg
- NOAEL (Rattus norvegicus [1]; reproduction developmental, duration: 19 days, dermal, Sprague-Dawley): 800 mg/kg-day
- NOAEL (Rattus norvegicus [1]; subchronic, duration: 13 weeks, dermal, Sprague-Dawley): 800 mg/kg-day

- LEL (Mus musculus [3]; injection, subcutaneous): 5 mg/kg-day
Structure (SMILES): O=C(O)c1ccc(O)cc1 [4-Hydroxybenzoic acid]

Structure (SMILES): Cc1ccc(N(C)C)cc1 [N,N,4-Trimethylaniline]
- LD50 (Oryctolagus sp.; New Zealand): > 2000 mg/kg
- LC50 (Rattus norvegicus [1]; inhalation, Sprague-Dawley): 1.4 µg/mL (≈ 10.4 µM)
- LD50 (Rattus norvegicus [1]; oral, Sprague-Dawley): 1650 mg/kg

Structure (SMILES): CCCCCCCCCCCCCCCCN.F [1-Hexadecanamine, hydrofluoride]
- LOAEL (Oryctolagus sp.; reproduction developmental, duration: 13 days, oral, gavage, F, New Zealand): 1.2 mg/kg-day
- NOAEL (Rattus norvegicus [1]; reproduction developmental, duration: 10 days, oral, gavage, F, Long-Evans): 30 mg/kg-day
- NOAEL (Rattus norvegicus [1]; reproduction developmental, oral, gavage, Long-Evans, generation: F0): 6 mg/kg-day
- NOAEL (Rattus norvegicus [1]; reproduction developmental, oral, gavage, Long-Evans, generation: F1): 30 mg/kg-day

Structure (SMILES): C=CCO [Allyl alcohol]
- LD50 (Mus musculus [4]; Swiss-Webster): 96 mg/kg
- LD50 (Oryctolagus sp.): 89 mg/kg
- LC50 (Rattus norvegicus [1]; inhalation, Long-Evans): ≥ 297 mg/m3 and ≤ 333 mg/m3
- LC50 (Rattus norvegicus [1]; inhalation, Sherman Wistar): 594 mg/m3
- LD50 (Rattus norvegicus [1]; oral, Sherman Wistar): 64 mg/kg
- LD50 (Rattus norvegicus [1]; oral, gavage, Long-Evans): ≥ 99 mg/kg and ≤ 105 mg/kg
- LD50 (Rattus norvegicus [1]; oral, gavage, Osborne-Mendel): 70 mg/kg
- NOAEL (Rattus norvegicus [1]; chronic, duration: 15 weeks, oral, drinking water, Wistar): 11.2 mg/kg-day
- LOAEL (Rattus norvegicus [1]; [6]): 95 mg/m3
- NOAEL (Rattus norvegicus [1]; [6]): 47.5 mg/m3
- NOEL (Rattus norvegicus [2]; F, Fischer 344, Hematology: Plt increase + Blood Chemistry: BUN increase25 Bile acid increase + Absolute Organ Weight: Liver increase + Relative Organ …): 1.5 mg/kg-day
- NOEL (Rattus norvegicus [2]; M, Fischer 344, Hematology: Plt increase + Blood Chemistry: BUN increase25 Bile acid increase + Absolute Organ Weight: Liver increase + Relative Organ …): 3 mg/kg-day
- LOAEL (Rattus norvegicus [5]): 6.9 mg/kg-day
- NOEL (Rattus norvegicus [5]): 4.8 mg/kg-day

Structure (SMILES): Cc1ccc([N+](=O)[O-])cc1C [1,2-Dimethyl-4-nitrobenzene]
- LD50 (Oryctolagus sp.; occlusive, New Zealand): > 5700 mg/kg
- LD50 (Rattus norvegicus [1]; oral, Wistar): 2640 mg/kg

Structure (SMILES): CC(C)COP(=S)([S-])OCC(C)C.CC(C)COP(=S)([S-])OCC(C)C.[Zn+2]
- LD50 (Oryctolagus sp.; New Zealand): > 20000 mg/kg
- LD50 (Rattus norvegicus [1]; oral, gavage, Wistar): 3600 mg/kg

Structure (SMILES): CC(C)(c1cc(Cl)c(O)c(Cl)c1)c1cc(Cl)c(O)c(Cl)c1 [2,2',6,6'-Tetrachlorobisphenol A]
- LEL (Mus musculus [3]; injection, intraperitoneal): 20 mg/kg-day

Structure (SMILES): C=CC(=C)CCC=C(C)C [Myrcene]
- LD50 (Mus musculus [4]; Swiss): 5060 mg/kg
- LOAEL (Mus musculus [4]; F): 500 mg/kg-day
- NOAEL (Mus musculus [4]; F): 250 mg/kg-day
- LOAEL (Mus musculus [4]; M): 1000 mg/kg-day
- NOAEL (Mus musculus [4]; M): 500 mg/kg-day
- LD50 (Oryctolagus sp.; New Zealand): > 5000 mg/kg
- LD50 (Rattus norvegicus [1]; oral, Wistar): > 5000 mg/kg
- LD50 (Rattus norvegicus [1]; oral, gavage, Wistar): > 11400 mg/kg
- LOAEL (Rattus norvegicus [1]; [7]): 1200 mg/kg-day
- NOAEL (Rattus norvegicus [1]; [7]): 500 mg/kg-day
- NOAEL (Rattus norvegicus [1]; developmental, duration: 27 days, oral, gavage, Wistar): 250 mg/kg-day
- LOAEL (Rattus norvegicus [1]; [8]): 500 mg/kg-day
- NOAEL (Rattus norvegicus [1]; [8]): 250 mg/kg-day
- LOAEL (Rattus norvegicus [1]; [9]): 1200 mg/kg-day
- NOAEL (Rattus norvegicus [1]; [9]): 500 mg/kg-day
- LOAEL (Rattus norvegicus [1]; [10]): 1000 mg/kg-day
- NOAEL (Rattus norvegicus [1]; [10]): 500 mg/kg-day
- LOAEL (Rattus norvegicus [1]; [11]): 500 mg/kg-day
- NOAEL (Rattus norvegicus [1]; [11]): 250 mg/kg-day
- LOAEL (Rattus norvegicus [1]; [12]): 500 mg/kg-day
- NOAEL (Rattus norvegicus [1]; [12]): 300 mg/kg-day
- LOAEL (Rattus norvegicus [1]; [13]): 1000 mg/kg-day
- NOAEL (Rattus norvegicus [1]; [13]): 500 mg/kg-day
- LOAEL (Rattus norvegicus [1]; [14]): 500 mg/kg-day
- NOAEL (Rattus norvegicus [1]; [14]): 250 mg/kg-day
- NOAEL (Rattus norvegicus [1]; reproduction developmental, oral, gavage, Wistar): 300 mg/kg-day
- LOAEL (Rattus norvegicus [1]; subchronic, duration: 13 weeks, oral, gavage, Fischer 344): 250 mg/kg-day

Structure (SMILES): O=C(O)CCCCCCCCCCC(=O)O [Dodecanedioic acid]
- LD50 (Oryctolagus sp.; occlusive): > 6000 mg/kg
- LC50 (Rattus norvegicus [1]; Inhalation): > 4.3 µg/mL
- LD50 (Rattus norvegicus [1]; oral): > 3000 mg/kg
- LD50 (Rattus norvegicus [1]; oral, gavage): > 17000 mg/kg
- NOAEL (Rattus norvegicus [1]; reproduction developmental, duration: 50 days, oral, gavage, CRL:CD BR): 1000 mg/kg-day
